Assay results from the supplement of paper PMC10307832.

Legend:
Assay in all cases: relative viability (nuclei count vs DMSO), 5 days (fraction); higher = more cells survive
[1] = test system: 201T
Summary of the method: (§1)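 Relative viability equals treated-well nuclei counts divided by vehicle-well nuclei counts. Counts came from 4× images of lung cancer cell lines grown in 1536-well plates for 5 days after pin-tool dosing on the day after seeding. Dosing used one drug alone or a fixed anchor-drug dose plus five library-drug doses (not always all listed) in √10 steps, and values are medians of duplicate plates.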

[2] = test system: A-427
Summary of the method: as §1

[3] = test system: BEN
Summary of the method: as §1

[4] = test system: COR-L 105
Summary of the method: as §1

[5] = test system: COR-L23
Summary of the method: as §1

[6] = test system: EKVX
Summary of the method: as §1

[7] = test system: EMC-BAC-2
Summary of the method: as §1

[8] = test system: HCC-15
Summary of the method: as §1

[9] = test system: HOP-62
Summary of the method: as §1

[10] = test system: LK-2
Summary of the method: as §1

[11] = test system: NCI-H1563
Summary of the method: as §1

[12] = test system: NCI-H1734
Summary of the method: as §1

[13] = test system: NCI-H1915
Summary of the method: as §1

[14] = test system: NCI-H1993
Summary of the method: as §1

[15] = test system: NCI-H2405
Summary of the method: as §1

[16] = test system: NCI-H460
Summary of the method: as §1

[17] = test system: NCI-H522
Summary of the method: as §1

[18] = test system: NCI-H647
Summary of the method: as §1

[19] = test system: NCI-H661
Summary of the method: as §1

[20] = test system: PC-14
Summary of the method: as §1

[21] = test system: SK-MES-1
Summary of the method: as §1

`CN1CCN(CCOc2cc(OC3CCOCC3)c3c(Nc4c(Cl)ccc5c4OCO5)ncnc3c2)CC1` [Saracatinib] + CCNC(=O)c1noc(-c2cc(C(C)C)c(O)cc2O)c1-c1ccc(CN2CCOCC2)cc1 [Luminespib] (partner 0.01 µM) gave a relative viability ([1]; first compound 0.02 µM) of 1.05, a relative viability ([1]; first compound 0.2 µM) of 0.956 and a relative viability ([1]; first compound 0.6325 µM) of 0.965. For the same molecule, the relative viability ([1]; first compound 2 µM) was 0.832, the relative viability ([2]; first compound 0.02 µM) was 0.985 and the relative viability ([2]; first compound 0.2 µM) was 0.755. It also gave a relative viability ([2]; first compound 0.6325 µM) of 0.907, a relative viability ([2]; first compound 2 µM) of 0.888 and a relative viability ([3]; first compound 0.02 µM) of 0.421. It also gave a relative viability ([3]; first compound 0.6325 µM) of 0.418, a relative viability ([3]; first compound 2 µM) of 0.401 and a relative viability ([4]; first compound 0.02 µM) of 0.893. For the same molecule, the relative viability ([4]; first compound 0.2 µM) was 0.692, the relative viability ([4]; first compound 0.6325 µM) was 0.608 and the relative viability ([4]; first compound 2 µM) was 0.467. The relative viability ([5]; first compound 0.02 µM) was 0.694, the relative viability ([5]; first compound 0.2 µM) was 0.605 and the relative viability ([5]; first compound 0.6325 µM) was 0.575. It also gave a relative viability ([5]; first compound 2 µM) of 0.558, a relative viability ([6]; first compound 0.02 µM) of 0.812 and a relative viability ([6]; first compound 0.6325 µM) of 0.883. For the same molecule, the relative viability ([6]; first compound 2 µM) was 0.532, the relative viability ([7]; first compound 0.02 µM) was 1.21 and the relative viability ([7]; first compound 0.2 µM) was 0.894. For the same molecule, the relative viability ([7]; first compound 0.6325 µM) was 1.16, the relative viability ([7]; first compound 2 µM) was 0.978 and the relative viability ([8]; first compound 0.02 µM) was 0.343. The relative viability ([8]; first compound 0.2 µM) was 0.32, the relative viability ([8]; first compound 0.6325 µM) was 0.331 and the relative viability ([8]; first compound 2 µM) was 0.176. The relative viability ([9]; first compound 0.02 µM) was 0.864, the relative viability ([9]; first compound 0.2 µM) was 0.852 and the relative viability ([9]; first compound 0.6325 µM) was 1.04. It also gave a relative viability ([9]; first compound 2 µM) of 1.02, a relative viability ([10]; first compound 0.02 µM) of 0.218 and a relative viability ([10]; first compound 0.2 µM) of 0.209. It also gave a relative viability ([10]; first compound 0.6325 µM) of 0.199, a relative viability ([10]; first compound 2 µM) of 0.186 and a relative viability ([11]; first compound 0.02 µM) of 0.481. For the same molecule, the relative viability ([11]; first compound 0.2 µM) was 0.488, the relative viability ([11]; first compound 0.6325 µM) was 0.537 and the relative viability ([11]; first compound 2 µM) was 0.525. The relative viability ([12]; first compound 0.02 µM) was 0.224, the relative viability ([12]; first compound 0.6325 µM) was 0.213 and the relative viability ([12]; first compound 2 µM) was 0.181. For the same molecule, the relative viability ([13]; first compound 0.02 µM) was 0.742, the relative viability ([13]; first compound 0.2 µM) was 0.703 and the relative viability ([13]; first compound 0.6325 µM) was 0.872. The relative viability ([13]; first compound 2 µM) was 0.654, the relative viability ([14]; first compound 0.02 µM) was 0.907 and the relative viability ([14]; first compound 0.2 µM) was 0.716. The relative viability ([14]; first compound 0.6325 µM) was 0.783, the relative viability ([14]; first compound 2 µM) was 0.561 and the relative viability ([15]; first compound 0.02 µM) was 0.588. For the same molecule, the relative viability ([15]; first compound 0.2 µM) was 0.525, the relative viability ([15]; first compound 0.6325 µM) was 0.519 and the relative viability ([15]; first compound 2 µM) was 0.271. The relative viability ([16]; first compound 0.02 µM) was 0.0378, the relative viability ([16]; first compound 0.2 µM) was 0.0238 and the relative viability ([16]; first compound 0.6325 µM) was 0.0253. The relative viability ([16]; first compound 2 µM) was 0.0287, the relative viability ([17]; first compound 0.02 µM) was 1.13 and the relative viability ([17]; first compound 0.2 µM) was 0.943. For the same molecule, the relative viability ([17]; first compound 0.6325 µM) was 1.11, the relative viability ([17]; first compound 2 µM) was 0.949 and the relative viability ([18]; first compound 0.02 µM) was 0.175. The relative viability ([18]; first compound 0.2 µM) was 0.171, the relative viability ([18]; first compound 0.6325 µM) was 0.303 and the relative viability ([18]; first compound 2 µM) was 0.146. For the same molecule, the relative viability ([19]; first compound 0.02 µM) was 0.948, the relative viability ([19]; first compound 0.2 µM) was 0.921 and the relative viability ([19]; first compound 0.6325 µM) was 0.943. It also gave a relative viability ([19]; first compound 2 µM) of 0.771, a relative viability ([20]; first compound 0.02 µM) of 0.175 and a relative viability ([20]; first compound 0.2 µM) of 0.183. For the same molecule, the relative viability ([20]; first compound 0.6325 µM) was 0.173, the relative viability ([20]; first compound 2 µM) was 0.227 and the relative viability ([21]; first compound 0.02 µM) was 0.627. The relative viability ([21]; first compound 0.2 µM) was 0.828, the relative viability ([21]; first compound 0.6325 µM) was 0.348 and the relative viability ([21]; first compound 2 µM) was 0.207.
